The values that follow come from US12409172B2, “Dosage regimen” (UNION therapeutics A/S, priority 2023, dated 2025).

In assay [1] the test system is adults with moderate to severe atopic dermatitis. The assay can be described thus: Phase 2b dose-ranging study in atopic dermatitis (Example 8): efficacy (EASI, IGA-AD, PGIC). It counts as in vivo, human. To be noted: for patients achieving IGA0/1 responses at week 16: MI. On the procedure:
A 16-week, phase 2b, double-blinded, placebo-controlled, dose-finding study assessing efficacy and safety of orismilast modified-release (MR) tablets in adults with moderate-to-severe atopic dermatitis was carried out (NCT05469464). Patients were randomized (1:1:1:1) to orismilast 20, 30, 40 mg or placebo, twice daily. Randomized and dosed patients were included in the Intent-to-Treat Population (used for efficacy and safety). Missing data was handled using Multiple Imputation (MI) for the analysis of primary and secondary efficacy endpoints.
The exploratory objectives are to: • Evaluate pharmacokinetic (PK) and pharmacodynamic parameters relevant to AD • Evaluate the effect of orismilast on the pulmonary status and course of the disease in patients with asthma Primary Endpoint • Percentage change in Eczema Area and Severity Index (EASI) score from Baseline at Week 16. […]

Assay [2] has as its system TARC and other inflammatory markers in atopic dermatitis skin lesions. The assay can be described thus: Skin tape strip biomarkers (OLINK FLEX panel) in the phase 2b atopic dermatitis study (Example 11). Format: in vivo, human. As to conditions: all treatment arms (20, 30, 40 mg BID). From the text:
Stratum corneum skin samples were collected at the designated time points using the tape stripping method to evaluate biomarker expression levels. Tape stripping is a minimally invasive, nonscarring approach using serial adhesive films to capture the stratum corneum and the upper part of the granular layer.
At Baseline, before administration of study drug, 1 lesional and 1 non-lesional area were identified, and 20 consecutive skin samples were collected from each area. At Week 16, the same procedure was repeated only from the same lesional areas sampled at Baseline.
Skin tape strip samples were taken from lesional and non-lesional skin at baseline and lesional skin at week 16 of patients participating in the phase 2b, double-blinded, placebo-controlled, dose-finding study (20 mg, 30 mg and 40 mg orismilast modified release tablets BID) in patients with moderate-to-severe atopic dermatitis (NCT05469464) described in Example 8. […] The primary objective of the biomarker study was to evaluate the effect of orismilast on a broad spectrum of inflammatory markers in atopic dermatitis skin lesions using tape strips as a non-invasive sampling technology combined with the Olink® technology (OLINK® FLEX panel) using analogous methods to those described in Example 10.
A linear mixed effect model was used on all patients to estimate Ismeans with standard error and adjusted p value.

Assay [3] deals with TNF-α secretion from human whole blood. Put plainly: LPS and SEB-induced TNF-α secretion from human whole blood. It counts as cell-based. To be noted: average; both LPS and SEB-induced TNF-α secretion from human whole blood.
The test system is the same in assay [4]. As to conditions: in vitro; cited from earlier work.

Molecules are shown by their SMILES.

`O=C(Cc1c(Cl)c[n+]([O-])cc1Cl)c1ccc(OC(F)F)c2c1OC1(CCS(=O)(=O)CC1)O2` [orismilast, 2-(3,5-dichloro-1-oxidopyridin-1-ium-4-yl)-1-[7-(difluoromethoxy)-1′,1′-dioxospiro[1,3-benzodioxole-2,4′-thiane]-4-yl]ethanone]: the “patients achieving IGA0/1 responses at week 16” value in assay [1] (20 mg BID (n=58)) turned out to be 26.3%; in assay [1] (30 mg BID (n=61)), 24.3%; in assay [1] (40 mg BID (n=59)), 30.9%. For the same compound, in assay [1] (30 mg BID, p>0,05), the “mean percentage change in EASI at week 16” value was −52.2%. Moreover, in assay [1] (active arms (20, 30, 40 mg BID)), the “Patient Global Impression of Change of "much improved" or "very much improved" compared to placebo at week 16” value was “improved significantly”. Moreover, the “TARC in lesional skin at week 16 of treatment” value in assay [2] was “significant reduction”. For the same compound, the “potency relative to apremilast on a molar basis” value in assay [3] worked out at 23 times. In assay [4], the “production of tumour necrosis factor α (TNFα) in human whole blood and PBMC” value is on record as “inhibited”.
